Source: ChEMBL document CHEMBL3603797, “Factors that influence T box riboswitch efficacy and tRNA affinity” (Bioorg Med Chem, 2015)
Activity calls are given as the source filed them. No cut-off for these calls is given here.

Assays:
[1] = Inhibition of readthrough probe 5'Cy5-CGCAccuccacuuuucuuucauaaTGCG-Dabcyl3' binding to 5'UUAUGAAAGAAAAGUGGAGGUGC3' RNA (unknown origin) by fluorescence assay
[2] = Binding affinity to Bacillus subtilis glyQS T box riboswitch mRNA assessed as inhibition of tRNAgly-induced glyQS transcription readthrough after 3 hrs by fluorescence assay

inhibition [1]: inactive | IC50 [2]: 8 µM
Compound: CN(CCCc1ccccc1)Cc1cn(CC(O)COC(=O)NCc2ccccc2)nn1 (configuration not stated)
